# Laboratory results reported in patent US20200268768A1, “CENICRIVIROC COMBINATION THERAPY FOR THE TREATMENT OF FIBROSIS” (Tobira Therapeutics, Inc., priority 2015, published 2020).
# Entries after “also recorded” stand apart in the source; their conditions may differ.
# What was measured:
# HIV-1 infected subjects = assay: Study 202 safety and tolerability; type: in vivo, human; conditions: 115 subjects, CVC 100 mg and 200 mg for up to 48 weeks
# CCR2 = CCR2 (Homo sapiens, UniProt P41597); assay: CCR2 antagonism in in vitro, ex vivo and clinical studies; conditions: Studies 652-2-201 and 652-2-202
# Excerpt: Clinical evidence of CCR2 and CCR5 antagonism was established by measuring changes from baseline in plasma MCP-1 (a ligand of CCR2) concentrations and changes in plasma HIV-RNA (CCR5 co-receptor required for HIV entry), respectively, in these 2 Phase 2 Studies.
# Mouse toxicity studies = type: in vivo; conditions: CVC doses up to 2000 mg/kg/day; no surgical procedures
# [1] = tested on: mouse UUO model of renal fibrosis; assay: Mouse unilateral ureter occlusion (UUO) model of renal fibrosis; type: in vivo, CD-1 mice; conditions: for Reduction of UUO-induced increase in composite Collagen Volume Fraction (CVF): ±SEM
# Experimental: Test animals were allocated to weight-matched treatment groups on the day prior to the surgical procedure (Day −1). Male CD-1 mice (N=51; age, 7-8 weeks) underwent either sham surgery or total ligation of the right ureter, i.e. UUO, via aseptic laparotomy (FIG. 5). […] Another group received the anti-transforming growth factor TGF-β1 antibody, compound 1D11 (positive control) at 3 mg/kg/day from Days −1 to 4, injected intraperitoneally once daily, and vehicle control from Days 0 to 5. […] On Day 5, animals were anaesthetised, blood and tissues were collected prior to sacrifice.
# Study endpoints included: a) body and kidney weights; b) fibrosis in obstructed kidney evaluated via histological quantitative image analysis of picrosirius red staining (ten images/depth/kidney obtained and assessed in a blinded fashion using light microscopy [at 200×] to enable sampling of 60-70% of the renal cortical area) and quantified by a composite Collagen Volume Fraction (CVF [% total area imaged]) score expressed as the average positive stain across three anatomically distinct (200-250 μM apart) tissue sections, or depths, from the obstructed kidney; c) hydroxyproline content of frozen renal cortical tissue biopsies as assessed by biochemical analyses; d) mRNA expression of profibrotic and inflammatory biomarkers (including MCP-1, Collagen 1a1, Collagen 3α1, TGF-β31, Fibronectin-1, α-smooth muscle actin (α-SMA) and connective tissue growth factor-1 (CTGF-1); assessed via Luminex® (Life Technologies™, Carlsbad, Calif., USA) assay with relative expression normalised to HPRT (hypoxanthine phosphoribosyltransferase).
# Data are expressed as mean±standard error of mean (SEM). Statistical analyses were performed using GraphPad Prism® (GraphPad Software, Inc., San Diego, Calif., USA). Treatment differences between sham-surgery+vehiclecontrol and UUO+vehicle-control groups, and between UUO+vehicle-control and UUO+compound-1D11 (positive control) groups, were analysed by unpaired t-Test. Treatment differences between UUO+vehicle-control and CVC-dose groups were analysed by one-way ANOVA (analysis of variance) with Dunnett's test (post-hoc).
# [2] = tested on: STAM mouse model of Non-alcoholic Steatohepatitis; assay: STAM mouse model of NASH, anti-HCC effects at week 18; conditions: for Mice that died (survival analysis): 6 to 18 weeks; for Body weight / CD31-positive area / Liver weight / Liver-to-body weight ratio / Maximum diameter of visible tumor nodules / Number of visible tumor nodules: mean ± SD
# Experimental: Group 1-Vehicle: Eighteen NASH mice were orally administered vehicle at a volume of 10 mL/kg twice daily (9:00 and 19:00) from 6 weeks of age.
# [3] = tested on: thioacetamide (TAA)-induced hepatic fibrosis; assay: Rat model of thioacetamide-induced liver fibrosis and cirrhosis; type: in vivo, Sprague-Dawley rats; conditions: for Reduction of ca-SMA / Reduction of collagen type 1 protein levels / Reduction of fibrosis by collagen morphometry: first 8 weeks
# Experimental: Fibrosis was induced in male Sprague-Dawley rats by intraperitoneal administration of TAA 150 mg/kg 3 times/week for 8 weeks. […] Biochemical, gene expression and histologic evaluations of the liver were conducted.
# [4] = CVC 7 and 20 mg/kg/day, compound 1D11 3 mg/kg/day, versus UUO+vehicle-control
# [5] = CVC-high 100 mg/kg/day oral, week 18
# [6] = CVC-high 100 mg/kg/day oral, week 18, listed as Cenicriviroc
# [7] = CVC-low 20 mg/kg/day oral, week 18
# [8] = CVC-low 20 mg/kg/day oral, week 18, listed as Cenicriviroc
# [9] = Group 1a: CVC 30 mg/kg/day concurrently with TAA
# [10] = Group 1b: CVC 100 mg/kg/day concurrently with TAA
# CCR2, sequence (P41597 whole entry): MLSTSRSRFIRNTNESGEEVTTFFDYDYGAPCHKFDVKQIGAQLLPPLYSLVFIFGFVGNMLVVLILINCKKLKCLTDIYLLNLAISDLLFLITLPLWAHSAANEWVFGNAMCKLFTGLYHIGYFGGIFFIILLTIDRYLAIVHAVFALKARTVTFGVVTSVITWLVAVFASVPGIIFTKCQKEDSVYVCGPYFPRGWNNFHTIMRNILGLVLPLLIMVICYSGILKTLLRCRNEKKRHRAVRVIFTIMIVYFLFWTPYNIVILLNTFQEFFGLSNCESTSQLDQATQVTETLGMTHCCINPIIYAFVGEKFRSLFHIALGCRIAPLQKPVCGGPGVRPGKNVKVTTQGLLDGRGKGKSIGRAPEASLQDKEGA
structure (smiles),measurement,setting,value
"CCCCOCCOc1ccc(-c2ccc3c(c2)C=C(C(=O)Nc2ccc([S@@+]([O-])Cc4cncn4CCC)cc2)CCCN3CC(C)C)cc1 [CVC, (S)-8-[4-(2-Butoxyethoxy)phenyl]-1-isobutyl-N-(4-{[(1-propyl-1H-imidazol-5-yl)methyl]sulfinyl}phenyl)-1,2,3,4-tetrahydro-1-benzazocine-5-carboxamide]",Tolerability,HIV-1 infected subjects,generally well tolerated; also recorded: effective and well tolerated
same,Antagonism of CCR2,CCR2,potent and concentration-dependent antagonism
same,Tolerability,Mouse toxicity studies,well tolerated
same,Reduction of UUO-induced increase in composite Collagen Volume Fraction (CVF),"[1]; CVC 7 mg/kg/day oral, Day 5",28.6±8.8%
same,Reduction of UUO-induced increase in composite Collagen Volume Fraction (CVF),"[1]; CVC 20 mg/kg/day oral, Day 5, one outlier excluded",31.8±6.8%
same,Tolerability after UUO surgery,[1]; CVC 100 mg/kg/day group (N=9),terminated early due to moribundity
same,Effect on obstructed kidney hydroxyproline content,"[1]; CVC 7 and 20 mg/kg/day, Day 5",Neither dose of CVC tested affected UUO-induced increases in obstructed kidney hydroxyproline content
same,"Collagen 1a1, Collagen 3α1, TGF-β1 and Fibronectin-1 mRNA expression in obstructed kidney",[1]; [4],"these reductions, compared with the UUO+vehicle-control group, did not reach statistical significance"
same,"Obstructed kidney cortical MCP-1, α-SMA and CTGF-1 mRNA expression",[1]; [4],did not have significant effects
same,Effect on body weight relative to UUO+vehicle-control,"[1]; Day 5, CVC 7 mg/kg/day oral, compound 1D11 3 mg/kg/day i.p.",no effect on body weight
same,Decrease in body weight relative to UUO+vehicle-control,"[1]; Day 5, CVC 20 mg/kg/day oral",5%
same,Obstructed or contralateral kidney weight or kidney weight index versus UUO+vehicle-control,"[1]; Day 5, CVC 7 and 20 mg/kg/day, compound 1D11 3 mg/kg/day",No significant treatment effects
same,Effect on NASH-derived HCC,"[2]; CVC treatment groups, week 18",not observed
same,Mice that died (survival analysis),[2]; CVC-high 100 mg/kg/day oral,Five out of twelve
same,Mice with GS-positive nodules,[2]; [5],seven out of seven
same,Mice with HCC lesions (HE staining),[2]; [5],six out of seven
same,Body weight,[2]; [5],20.8 ± 2.7 g
same,CD31-positive area,[2]; [5],3.68±1.37%
same,Liver weight,[2]; [5],1817 ± 446 mg
same,Liver-to-body weight ratio,[2]; [5],8.8±2.3%
same,Maximum diameter of visible tumor nodules,[2]; [5],5.3±5.1 mm
same,Number of visible tumor nodules,[2]; [5],3.6±2.5
same,Body weight,[2]; [6],20.8 ± 2.7 g
same,CD31-positive area,[2]; [6],3.68 ± 1.37%
same,Liver weight,[2]; [6],1817 ± 446 mg
same,Liver-to-body weight ratio,[2]; [6],8.8 ± 2.3%
same,Maximum diameter of visible tumor nodules,[2]; [6],5.3 ± 5.1 mm
same,Number of visible tumor nodules,[2]; [6],3.6 ± 2.5
same,Mice that died (survival analysis),[2]; CVC-low 20 mg/kg/day oral,Six out of twelve
same,Mice with GS-positive nodules,[2]; [7],five out of six
same,Mice with HCC lesions (HE staining),[2]; [7],five out of six
same,Body weight,[2]; [7],22.9 ± 3.5 g
same,CD31-positive area,[2]; [7],1.47±1.10%
same,Liver weight,[2]; [7],1837 ± 410 mg
same,Liver-to-body weight ratio,[2]; [7],8.3±2.8%
same,Maximum diameter of visible tumor nodules,[2]; [7],4.8±5.4 mm
same,Number of visible tumor nodules,[2]; [7],1.5±1.9
same,Body weight,[2]; [8],22.9 ± 3.5 g
same,CD31-positive area,[2]; [8],1.47 ± 1.10%
same,Liver weight,[2]; [8],1837 ± 410 mg
same,Liver-to-body weight ratio,[2]; [8],8.3 ± 2.8%
same,Maximum diameter of visible tumor nodules,[2]; [8],4.8 ± 5.4 mm
same,Number of visible tumor nodules,[2]; [8],1.5 ± 1.9
same,Reduction of ca-SMA,[3]; [9],17%
same,Reduction of collagen type 1 protein levels,[3]; [9],30%
same,Reduction of fibrosis by collagen morphometry,[3]; [9],49%
same,Reduction of ca-SMA,[3]; [10],22%
same,Reduction of collagen type 1 protein levels,[3]; [10],12%
same,Reduction of fibrosis by collagen morphometry,[3]; [10],38%
same,Reduction in collagen,[3]; Group 2a: CVC 30 mg/kg/day during Weeks 4-8 (emerging fibrosis),36%
same,Effect on fibrogenic gene expression or fibrosis,"[3]; Group 3: treatment Weeks 8-12, cirrhosis present",no significant effect of CVC on fibrogenic gene expression or fibrosis
